Laboratory results from the NIST ThermoML archive (doi:10.1021/je400551d).
Values joined by “and” are separate entries in the source; they are usually repeats but may differ in a detail not shown here. Identical values can stand only once.

Conditions: Liquid, Manometric method

OCCO [1,2-ethanediol]
Conditions	vapor or sublimation pressure [kPa]
336.45 K	0.2527
345 K	0.4838
355.15 K	0.9002
369.25 K	1.69
374.45 K	2.13
378.95 K	2.66
384.45 K	3.57
388.1 K	4.4
391.45 K	5.33
394.56 K	6.01
397.25 K	7.14
404.05 K	9.2
408.25 K	11.34

COC(N)=O [carbamic acid, methyl ester]
Conditions	vapor or sublimation pressure [kPa]
341.45 K	1.31
350.9 K	1.91
356.06 K	2.5
360.75 K	3.55
364.43 K	4.19
367 K	4.48
371.7 K	5.42
373.85 K	6.23
377.23 K	7.14
384.9 K	9.83
387.17 K	10.96
390.5 K	12.39
393.75 K	13.99

CCCCCCCCCC [decane]
Conditions	vapor or sublimation pressure [kPa]
299.25 K	0.1732
306.95 K	0.3091
309.15 K	0.4116
316.26 K	0.6545
326.1 K	1.04
340.05 K	1.95
347.9 K	2.97
353.32 K	3.8
358.67 K	4.82
362.85 K	5.92
365.13 K	6.96
370.4 K	8.23
377.13 K	10.48
379.93 K	12
382.83 K	13.25

COC(=O)Nc1ccccc1 [methyl N-phenylcarbamate]
Conditions	vapor or sublimation pressure
372.5 K	0.2093 kPa
374.46 K	0.2248 kPa
376.9 K	0.254 kPa
379.05 K	0.308 kPa
380.65 K	0.3343 kPa
383.31 K	0.3891 kPa
385.85 K	0.4487 kPa
387.85 K	0.4996 kPa
390.35 K	0.5609 kPa
391.76 K	0.5914 kPa
394.05 K	0.651 kPa
395.8 K	0.719 kPa
397.05 K	0.7885 kPa and 0.7897 kPa
399.63 K	0.9364 kPa
399.83 K	0.9418 kPa
402.15 K	1.06 kPa
409.85 K	1.29 kPa
412.9 K	1.54 kPa
415.9 K	1.97 kPa
418.45 K	2.13 kPa

O [water]
Conditions	vapor or sublimation pressure [kPa]
280.2 K	1.29
282.23 K	1.34
287.9 K	1.82
292.36 K	2.13
296.13 K	2.78
300.7 K	3.47
304.8 K	4.54
306.67 K	4.82
309.65 K	5.9
312.07 K	6.75
314.95 K	7.78
316.65 K	8.45
317.9 K	9.45
320.04 K	10.62
322.75 K	11.78
